In the experiment the test system is KedF. As to the kind of experiment: continuous spectrophotometric assay with periodate, […] nm. It counts as biochemical, Streptoalloteichus sp. ATCC 53650. The settings on record: 50 mM phosphate pH 8.0, 25 °C, 3 mM sodium periodate.

This note sets out measurements from paper PMC3711097 (Molecular bioSystems, 2013).

As for `c1ccc([C@H]2CO2)cc1` [(S)-styrene oxide], the Michaelis-Menten constant (Km) (as a rule, the substrate concentration at which the rate is half of its maximum) (4.0 μM KedF) was determined as 910 ± 100 µM.
With `c1ccc([C@@H]2CO2)cc1` [(R)-styrene oxide], the Km (9.6 μM KedF) was 3500 ± 640 µM.
